Data: publication PMC3688238, “The effect of different dosing regimens of motesanib on the gallbladder: a randomized phase 1b study in patients with advanced solid tumors” (BMC Cancer, 2013)
Where two headings read alike, the source gives them in different places.

Columns and labels:
Assay type in all cases: in vivo, human
[1] = test system: gallbladder; experiment: Specific gallbladder findings per independent ultrasound review
Protocol: (§1) Gallbladder volume was assessed by ultrasound after a ≥8 hours fast at screening (within 21 days prior to randomization) and before the motesanib morning dose on days 8 and 15 of cycle 1, on day 1 of cycles 2 and 3, every 6 weeks thereafter, and at the safety follow-up (30 to 33 days after the last dose). Ultrasound was performed weekly when motesanib was withheld and weekly for 4 weeks following treatment discontinuation. Gallbladder ultrasound measurements were assessed by independent central radiologic review (MedQIA, Los Angeles, CA, USA). Gallbladder ejection fraction was assessed by investigators or other study site personnel using CCK-HIDA at screening (within 21 days of randomization), on day 1 of cycle 2, day 1 of cycle 6 (±3 days), and at the safety follow-up. Study-specific training and standard operating procedures were supplied to all radiology technicians.

[2] = Pharmacokinetic analysis of plasma motesanib concentrations (noncompartmental); conditions: for concentration at 24 h: read-out: Median Cmin (trough plasma concentration at 24 hours postdose); for Cmax: po, read-out: Median Cmax
Protocol: Blood samples were collected as follows: predose and at 30 minutes and 1, 2, 4, 6, 8, and 24 hours postdose on day 1 of weeks 1 and 4, and predose and 1 to 2 hours postdose at weeks 2, 3, and 7 and every 3 weeks thereafter. […] Motesanib concentrations were assessed as described previously.

[3] = test system: advanced metastatic solid tumors; experiment: Tumor response per RECIST (investigator)
Protocol: Tumor response per RECIST [27] was assessed by the investigators. Magnetic resonance imaging or CT scans were performed at screening, every 6 weeks thereafter, and at the safety follow-up. Complete or partial responses were confirmed >28 days after the initial response assessment throughout the study. Patients who discontinued without a postbaseline tumor assessment or confirmation were considered nonresponders.
(§2) The ultrasound and CCK-HIDA gallbladder analysis sets, which included all randomized patients who received ≥1 dose of motesanib and had baseline and ≥1 evaluable follow-up ultrasound or CCK-HIDA, respectively, were used for the principal analysis of endpoints related to gallbladder size and characteristics. For each dosing scheme, estimates for the mean and maximum change from baseline in gallbladder size (volume as measured by ultrasound) and function (ejection fraction as measured by CCK-HIDA scan) were calculated. Mean change from baseline was calculated by taking the difference between the baseline gallbladder measurement and the average gallbladder measurement observed during study treatment. The mean (95% CI) difference was then calculated across all patients for each treatment arm, and for the whole study population. Maximum change from baseline in gallbladder size or volume was calculated by taking the difference between the baseline gallbladder measurement and the maximum gallbladder measurement observed during study treatment. The mean (95% CI) maximum change from baseline was then calculated across all patients for each treatment arm, and for the whole study population. Reversibility of changes in gallbladder volume and ejection fraction were evaluated calculating changes between the last on-treatment measurement and the last available measurement following the discontinuation of motesanib. Covariates (treatment, age, sex, body mass index, and nonsteroidal anti-inflammatory drug [NSAID] use) were explored in a linear regression model for potential relationships with gallbladder volume. Objective response was assessed for the safety analysis set, including only patients with measureable disease at baseline.

[4] = test system: gallbladder; experiment: Gallbladder function (ejection fraction) by CCK-HIDA, investigator assessment; conditions: for Gallbladder ejection fraction, mean change from baseline (95% CI): CCK-HIDA
Protocol: as §1, §2

[5] = Arm C, 75 mg BID 5 d on/2 d off, post treatment, n = 8
[6] = Arm B, 75 mg BID 2 wk on/1 wk off, n = 3
[7] = Arm B, 75 mg BID 2 wk on/1 wk off, n = 10
[8] = Arm C, 75 mg BID 5 d on/2 d off, n = 2
[9] = Arm C, 75 mg BID 5 d on/2 d off, n = 10

## CC1(C)CNc2cc(NC(=O)c3cccnc3NCc3ccncc3)ccc21 [Motesanib]
[1]; Arm C, 75 mg BID 5 d on/2 d off, post baseline, n = 11
  Sludge, patient incidence: 3 (27) n (%)
[1]; [5]
  Common duct dilation, patient incidence: 0 (0) n (%)
  Gallstones, patient incidence: 0 (0) n (%)
  Pericholecystic fluid, patient incidence: 0 (0) n (%)
  Sludge, patient incidence: 0 (0) n (%)
[1]; all arms
  Patients who developed de novo gallstones during treatment: Two
[2]; Arm B, after the 1-week wash-out period, limit of quantitation 0.2 ng/mL
  Median motesanib concentration after wash-out period: < 0.2 ng/mL
[2]; Arm C, after the 2-day wash-out period
  Median motesanib concentration after wash-out period: 1.2 ng/mL
[2]; after QD administration
  Drug accumulation: no evidence of drug accumulation
[2]; human, plasma, oral, 75 mg, Arm B, 75 mg BID 2 wk on/1 wk off
  concentration at 24 h: 60 ng/mL
[2]; human, plasma, oral, 75 mg, Arm C, 75 mg BID 5 d on/2 d off
  concentration at 24 h: 35 ng/mL
[2]; human, plasma, oral, 125 mg, Arm A, 125 mg QD
  concentration at 24 h: 14 ng/mL
[2]; human, plasma, oral, range across the three dosing regimens, read-out: Median AUC
  AUC: 1900 to 3000 ng·h/mL
[2]; human, plasma, 75 mg, Arm B, 75 mg BID 2 wk on/1 wk off, plasma, oral
  Cmax: 323 ng/mL
[2]; human, plasma, 75 mg, Arm C, 75 mg BID 5 d on/2 d off, plasma, oral
  Cmax: 355 ng/mL
[2]; human, plasma, 125 mg, Arm A, 125 mg QD, plasma, oral
  Cmax: 630 ng/mL
[3]; Arm A, n = 6
  Durable (≥24 weeks) stable disease: 25%
[3]; Arm A, n = 8
  Progressive disease: 33%
[3]; Arm A, n = 15
  Stable disease as best tumor response: 63%
[3]; Arm B, n = 1
  Durable (≥24 weeks) stable disease: 8%
[3]; Arm B, n = 3
  Progressive disease: 25%
[3]; Arm B, n = 6
  Stable disease as best tumor response: 50%
[3]; Arm B, stage IV thyroid cancer
  Patients with confirmed partial response: one
[3]; Arm C, n = 1
  Durable (≥24 weeks) stable disease: 9%
[3]; Arm C, n = 4
  Progressive disease: 36%
[3]; Arm C, n = 7
  Stable disease as best tumor response: 64%
[3]; all patients
  Complete responses: No complete responses were achieved
[3]; all patients (8 patients)
  Durable (≥24 weeks) stable disease: 17%
[3]; all patients (fifteen patients)
  Progressive disease: 32%
[3]; all patients (twenty-eight patients)
  Stable disease as best tumor response: 60%
[3]; all patients with measurable disease at baseline, RECIST
  Overall objective response rate: 2%
[4]; Arm A, 125 mg QD, n = 5
  Mean change in ejection fraction after discontinuation of motesanib (95% CI): 10.8 (−45.8 to 67.4) %
  Mean change in ejection fraction from baseline to last available off-treatment measurement (95% CI): −16.6 (−53.3 to 20.1) %
[4]; Arm A, 125 mg QD, n = 21
  Gallbladder ejection fraction, maximum change from baseline (95% CI): −30.1 (−46.4 to −13.7) %
  Gallbladder ejection fraction, mean change from baseline (95% CI): −24.1 (−38.2 to −9.9) %
[4]; [6]
  Mean change in ejection fraction after discontinuation of motesanib (95% CI): 63.0 (24.0 to 102.0) %
  Mean change in ejection fraction from baseline to last available off-treatment measurement (95% CI): 7.7 (−3.8 to 19.1) %
[4]; [7]
  Gallbladder ejection fraction, maximum change from baseline (95% CI): −26.5 (−45.0 to −8.0) %
  Gallbladder ejection fraction, mean change from baseline (95% CI): −25.0 (−43.9 to −6.1) %
[4]; [8]
  Mean change in ejection fraction after discontinuation of motesanib (95% CI): 46.0 (−347.9 to 439.9) %
  Mean change in ejection fraction from baseline to last available off-treatment measurement (95% CI): 14.5 (−55.4 to 84.4) %
[4]; [9]
  Gallbladder ejection fraction, maximum change from baseline (95% CI): −6.5 (−29.8 to 16.8) %
  Gallbladder ejection fraction, mean change from baseline (95% CI): −3.3 (−25.0 to 18.4) %
[4]; across all patients
  Gallbladder ejection fraction change from baseline, median: −18.0%
  Gallbladder ejection fraction change from baseline, range: −81% to 67
[4]; across all patients, from 61.3% at baseline
  Gallbladder ejection fraction decrease from baseline, mean: 19.2%
